Experimental data from US20260069539A1, “LIPIDOID COMPOUNDS AND RELATED COMPOSITIONS AND USES” (Poseida Therapeutics, Inc., priority 2023, published 2026).

Legend:
liver cells [1] = assay: In vivo LNP delivery of DNA encoding firefly luciferase, bioluminescent imaging (BLI) at 48 hr; set-up: species or system BALB/C mice; conditions: for Mean Luciferase Flux (p/s): adult BALB/C mice, 0.5 mg/kg DNA encoding firefly luciferase in LNP; for Mean Luciferase Flux (p/s) / Total Flux: BLI at 48 hr; for Total Flux: Example 103, 0.5 mg/kg DNA intravenous
Procedure: Adult BALB/C mice (n=3) were administered 0.5 mg/kg of DNA encoding firefly luciferase (Nature Technology Corp) formulated in a LNP composition listed in Table 4. One group of mice was treated with vehicle (PBS, Thermo Fisher Scientific, USA) as a negative control.
(§1) The location and extent of luciferase expression in treated and control mice were determined at 48 hr for DNA delivery by bioluminescent imaging (BLI) of anesthetized mice using an IVIS Lumina in vivo imaging system (Perkin Elmer) according to the manufacturer's instructions. Briefly, mice were anesthetized using isoflurane in oxygen, and placed supine on a heated stage. Mice were then administered D-luciferin (Perkin-Elmer #122799) IP, and BLI was performed.
as §1, with “DNA” for “DNA delivery”, “performed. […]” for “performed.”
Body weight loss (BWL) measurements were taken at 24 hrs post administration and luciferase expression was measured by whole body luminescence imaging (BLI) at 48 hours post-administration. […]
Luciferase expression was measured by whole body luminescence imaging (BLI) at 48 hours post-administration.

liver cells [2] = assay: In vivo LNP delivery of fLuciferase mRNA, bioluminescent imaging (BLI) at 4 hr; set-up: species or system BALB/C mice; conditions: for Mean Luciferase Flux: 0.5 mg/kg fLuc mRNA i.v., 4 hr; for Total Flux: 0.5 mg/kg fLuciferase mRNA intravenous
Procedure: Adult female BALB/C mice (n=3/group) were intravenously administered 0.5 mg/kg of 5′-CleanCap—fLuciferase mRNA (TriLink Biotech) formulated with the LNP compositions shown in Table 6. One group of mice was treated with vehicle (PBS, Thermo Fisher Scientific, USA) as a negative control.
as §1, with “determined at 4 hr for mRNA and 48 hr” for “determined at 48 hr”, “for DNA by bioluminescent” for “for DNA delivery by bioluminescent”
as §1, with “4” for “48”, “hr” for “hr for DNA delivery”
as §1, with “4” for “48”, “hr” for “hr for DNA delivery”
The location and extent of luciferase expression in treated and control mice were determined at 4 hr by bioluminescent imaging (BLI) of anesthetized mice using an IVIS Lumina in vivo imaging system (Perkin Elmer) according to the manufacturer's instructions.
Briefly, mice were anesthetized using isoflurane in oxygen, and placed supine on a heated stage. Mice were then administered D-luciferin (Perkin-Elmer #122799) IP, and BLI was performed.
as §1, with “4” for “48”, “hr” for “hr for DNA delivery”

[3] = Body weight change / body weight loss 24 hours post-administration of LNP; assay type: in vivo, BALB/C mice; conditions: fLuc mRNA 0.5 mg/kg i.v.
Procedure: In addition, the body weight of mice treated with LNP compositions of the present disclosure prepared as described in Example 77 was assessed prior to intravenous administration and 24 hours post-administration and the body weights at baseline and post-treatment were compared.
In addition, the body weight of mice treated with LNP compositions of the present disclosure was assessed prior to intravenous administration and 24 hours post-administration and the body weights at baseline and post-treatment were compared.
Body weight loss (BWL) measurements were taken at 24 hrs post administration and luciferase expression was measured by whole body luminescence imaging (BLI) at 48 hours post-administration.
Blood was drawn from control and treated mice 4 hrs post-administration for cytokine analysis, body weight loss (BWL) measurements were taken at 24 hrs post administration and luciferase expression was measured by whole body luminescence imaging (BLI) at 48 hours post-administration.

[4] = LNP with 50 % moles of COMPOUND NO. 38 or 39 (DOPC 10/Chol 38.5/PEG-DMG 1.5, Lipid:RNA 80)
[5] = LNP with 40.75 % moles of the compound
[6] = LNP with 50 % moles of the compound
[7] = Table 15 experiment, LNP with 40.75 % moles of the compound (Lipid:RNA 80)
[8] = Table 15 experiment, LNP with 50 % moles of the compound (Lipid:RNA 80)
[9] = Example 104, experiment of Table 64, BLI at 4 hr
[10] = Example 104, experiment of Table 65, BLI at 4 hr
[11] = Example 104, experiment of Table 63, BLI at 4 hr

CCCCCC1CCC(C(=O)OCCOC(=O)CCN(CCCN(C)CCCN(CCC(=O)OCCOC(=O)[C@H]2CC[C@H](CCCCC)CC2)CCC(=O)OCCOC(=O)[C@H]2CC[C@H](CCCCC)CC2)CCC(=O)OCCOC(=O)C2CCC(CCCCC)CC2)CC1 (some centres unmarked) [COMPOUND NO. 3]
Mean Luciferase Flux (p/s) (liver cells [1]): 2.12E+08 p/s

CCCCCC1CCC(C(=O)OCCOC(=O)CCN(CCCN(C)CCN(CCC(=O)OCCOC(=O)[C@H]2CC[C@H](CCCCC)CC2)CCC(=O)OCCOC(=O)[C@H]2CC[C@H](CCCCC)CC2)CCC(=O)OCCOC(=O)C2CCC(CCCCC)CC2)CC1 (some centres unmarked) [COMPOUND NO. 4]
Mean Luciferase Flux (p/s) (liver cells [1]): 1.36E+09 p/s

CCCCC[C@H]1CC[C@H](C(=O)OCC(COC(=O)CCCCCN(CCCCO)CCCCCC(=O)COC(COC(=O)[C@H]2CC[C@H](CCCCC)CC2)COC(=O)[C@H]2CC[C@H](CCCCC)CC2)COC(=O)[C@H]2CC[C@H](CCCCC)CC2)CC1 [COMPOUND NO. 38]
Total Flux (liver cells [1]; LNP with 10% DSPC): 8.29E+07 p/s
Mean Luciferase Flux (liver cells [2]; [4]): 1.17E+11 p/s

CCCCC[C@H]1CC[C@H](C(=O)OCC(COC(=O)CCCCCN(CCCCCC(=O)COC(COC(=O)[C@H]2CC[C@H](CCCCC)CC2)COC(=O)[C@H]2CC[C@H](CCCCC)CC2)CCCCNC(C)=O)COC(=O)[C@H]2CC[C@H](CCCCC)CC2)CC1 [COMPOUND NO. 39]
Total Flux (liver cells [1]; LNP with 10% DOPC): 2.03E+06 p/s
Mean Luciferase Flux (liver cells [2]; [4]): 9.49E+10 p/s

CCCCCC(=O)OCC1CCC(COC(=O)C(CCCN(C)CCCC(C(=O)OCC2CCC(COC(=O)CCCCC)CC2)C(=O)OCC2CCC(COC(=O)CCCCC)CC2)C(=O)OCC2CCC(COC(=O)CCCCC)CC2)CC1 (centres unmarked) [COMPOUND NO. 41]
% body weight change [3, 5]: −1.8%
% body weight change [3, 6]: −2.6%
Mean Luciferase Flux (liver cells [2]; [7]): 3.79E+09 p/s
Mean Luciferase Flux (liver cells [2]; [8]): 5.26E+09 p/s

CC(C)CCCC1CCC(COC(=O)C(CCCN(CCO)CCCC(C(=O)OCC2CCC(CCCC(C)C)CC2)C(=O)OCC2CCC(CCCC(C)C)CC2)C(=O)OCC2CCC(CCCC(C)C)CC2)CC1 (centres unmarked) [COMPOUND NO. 42]
% body weight change [3, 5]: −2.3%
% body weight change [3, 6]: −4.0%
Mean Luciferase Flux (liver cells [2]; [7]): 1.23E+09 p/s
Mean Luciferase Flux (liver cells [2]; [8]): 8.27E+09 p/s

CCCCC[C@H]1CC[C@H](C(=O)OCC(COC(=O)CCCCCN(CCCCCC(=O)OCC(COC(=O)[C@H]2CC[C@H](CCCCC)CC2)COC(=O)[C@H]2CC[C@H](CCCCC)CC2)[C@H]2CC[C@H](O)CC2)COC(=O)[C@H]2CC[C@H](CCCCC)CC2)CC1 [COMPOUND NO. 53]
Total Flux (liver cells [1]; LNP with 10% DOPC): 4.23E+07 p/s

CCCCC[C@H]1CC[C@H](C(=O)OCC(COC(=O)CCCCCN(CCCCCC(=O)OCC(COC(=O)[C@H]2CC[C@H](CCCCC)CC2)COC(=O)[C@H]2CC[C@H](CCCCC)CC2)C[C@@H](O)CO)COC(=O)[C@H]2CC[C@H](CCCCC)CC2)CC1 [COMPOUND NO. 60]
Total Flux (liver cells [2]; [9]): 6.51E+10 p/s

CCCCC[C@H]1CC[C@H](C(=O)OCC(COC(=O)CCCCCN(CCCCCC(=O)OCC(COC(=O)[C@H]2CC[C@H](CCCCC)CC2)COC(=O)[C@H]2CC[C@H](CCCCC)CC2)C[C@H](O)CO)COC(=O)[C@H]2CC[C@H](CCCCC)CC2)CC1 [COMPOUND NO. 61]
Total Flux (liver cells [2]; [9]): 1.04E+11 p/s

CCCCC[C@H]1CC[C@H](C(=O)OCC(COC(=O)CCCCCN(CCCCCC(=O)OCC(COC(=O)[C@H]2CC[C@H](CCCCC)CC2)COC(=O)[C@H]2CC[C@H](CCCCC)CC2)C(CO)CO)COC(=O)[C@H]2CC[C@H](CCCCC)CC2)CC1 [COMPOUND NO. 62]
Total Flux (liver cells [2]; [10]): 2.20E+11 p/s

CCCCC[C@H]1CC[C@H](C(=O)OCC(COC(=O)CCCCCN(CCCCCC(=O)OCC(COC(=O)[C@H]2CC[C@H](CCCCC)CC2)COC(=O)[C@H]2CC[C@H](CCCCC)CC2)Cc2ccccc2)COC(=O)[C@H]2CC[C@H](CCCCC)CC2)CC1 [COMPOUND NO. 63]
Total Flux (liver cells [2]; [9]): 3.48E+05 p/s

O=C(CCCCCN(CCO)CCCCCC(=O)OCC(COC(=O)CCCCC1CCCCC1)COC(=O)CCCCC1CCCCC1)OCC(COC(=O)CCCCC1CCCCC1)COC(=O)CCCCC1CCCCC1 [COMPOUND NO. 65]
Total Flux (liver cells [2]; [11]): 1.30E+11 p/s

O=C(CCCCCN(CCCO)CCCCCC(=O)OCC(COC(=O)CCCCC1CCCCC1)COC(=O)CCCCC1CCCCC1)OCC(COC(=O)CCCCC1CCCCC1)COC(=O)CCCCC1CCCCC1 [COMPOUND NO. 66]
Total Flux (liver cells [2]; [11]): 3.25E+11 p/s

O=C(CCCCCN(CCCCO)CCCCCC(=O)OCC(COC(=O)CCCCC1CCCCC1)COC(=O)CCCCC1CCCCC1)OCC(COC(=O)CCCCC1CCCCC1)COC(=O)CCCCC1CCCCC1 [COMPOUND NO. 67]
Total Flux (liver cells [2]; [10]): 3.79E+11 p/s

CCCCC[C@H]1CC[C@H](C(=O)OCC(COC(=O)CCCCN(CCO)CCCCC(=O)OCC(COC(=O)[C@H]2CC[C@H](CCCCC)CC2)COC(=O)[C@H]2CC[C@H](CCCCC)CC2)COC(=O)[C@H]2CC[C@H](CCCCC)CC2)CC1 [COMPOUND NO. 71]
Total Flux (liver cells [2]; [10]): 1.78E+11 p/s

CCCCC[C@H]1CC[C@H](C(=O)OCC(COC(=O)CCCCN(CCCO)CCCCC(=O)OCC(COC(=O)[C@H]2CC[C@H](CCCCC)CC2)COC(=O)[C@H]2CC[C@H](CCCCC)CC2)COC(=O)[C@H]2CC[C@H](CCCCC)CC2)CC1 [COMPOUND NO. 72]
Total Flux (liver cells [2]; [10]): 2.40E+11 p/s

CCCCC[C@H]1CC[C@H](C(=O)OCC(COC(=O)CCCCN(CCCCO)CCCCC(=O)OCC(COC(=O)[C@H]2CC[C@H](CCCCC)CC2)COC(=O)[C@H]2CC[C@H](CCCCC)CC2)COC(=O)[C@H]2CC[C@H](CCCCC)CC2)CC1 [COMPOUND NO. 73]
Total Flux (liver cells [2]; [10]): 1.61E+11 p/s

CCCCCCCCCCCC(=O)OCC(COC(=O)CCCCCCCCCCC)COC(=O)CCCCCN(CCO)CCCCCC(=O)OCC(COC(=O)CCCCCCCCCCC)COC(=O)CCCCCCCCCCC [compound 100, reference compound]
DNA delivery potency (liver cells [1]; 0.5 mg/kg DNA, BLI 48 hr, compared to LNPs comprising COMPOUND NOS. 36, 37, or 38): greatly reduced
Total Flux (liver cells [1]; LNP comprising compound 100, composition not stated): 1.97E+07 p/s
RNA delivery potency (liver cells [2]; 0.5 mg/kg fLuciferase mRNA in LNP, BLI at 4 hr): RNA delivery potency increases with increasing number of cyclohexyl-substituted tails
Total Flux (liver cells [2]; [9]): 3.24E+10 p/s
